Assay results taken from PubChem BioAssay AID330 (DTP/NCI, 2004).
Where “and” joins values, the source holds several entries; their conditions need not be identical. Identical values can stand only once. Inconclusive results and toxic doses are left out. Rule for the calls: active = survival T/C of 150% or more; inactive = T/C below 125% in these data. Square brackets hold non-standard residues; d marks the D form. Peptide text beside a SMILES is read from it. ξ: configuration not given here. ξPhe(4-N(CH2CH2Cl)2) = NC(Cc1ccc(N(CCCl)CCCl)cc1)C(=O)O

System: P388 leukemia ip, CD2F1 mice, survival T/C
Experiment: NCI In Vivo Anticancer Drug Screen. Data for tumor model P388 Leukemia (intraperitoneal) in CD2F1 (CDF1) mice
Settings: endpoint: median survival time, higher = longer survival
Summary of the method: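 Mice carrying the transplanted tumor received test compound or vehicle. Survival was recorded in each group, and the value is the treated-group measurement divided by that of the vehicle-treated control group.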

[1] = dose: 50.0 mg/kg/injection, schedule: Q01DX009 (ip), vehicle: Klucel (hydroxypropylcellulose) (HPC)
[2] = dose: 100.0 mg/kg/injection, schedule: Q01DX009 (ip), vehicle: Klucel (hydroxypropylcellulose) (HPC)
[3] = dose: 200.0 mg/kg/injection, schedule: Q01DX009 (ip), vehicle: Klucel (hydroxypropylcellulose) (HPC)
[4] = dose: 25.0 mg/kg/injection, schedule: Q01DX005 (ip), vehicle: saline with Tween-80
[5] = dose: 50.0 mg/kg/injection, schedule: Q01DX005 (ip), vehicle: saline with Tween-80
[6] = dose: 100.0 mg/kg/injection, schedule: Q01DX005 (ip), vehicle: saline with Tween-80
[7] = dose: 100.0 mg/kg/injection, schedule: Q01DX001 (ip), vehicle: saline with Tween-80
[8] = dose: 200.0 mg/kg/injection, schedule: Q01DX001 (ip), vehicle: saline with Tween-80
[9] = dose: 400.0 mg/kg/injection, schedule: Q01DX001 (ip), vehicle: saline with Tween-80
[10] = dose: 60.0 mg/kg/injection, schedule: Q01DX005 (ip), vehicle: saline with Tween-80
[11] = dose: 120.0 mg/kg/injection, schedule: Q01DX005 (ip), vehicle: saline with Tween-80
[12] = dose: 100.0 mg/kg/injection, schedule: Q01DX009 (ip), vehicle: saline with Tween-80
[13] = dose: 100.0 mg/kg/injection, schedule: Q04DX002 (ip), vehicle: saline with Tween-80
[14] = dose: 200.0 mg/kg/injection, schedule: Q04DX002 (ip), vehicle: saline with Tween-80
[15] = dose: 200.0 mg/kg/injection, schedule: Q01DX005 (ip), vehicle: saline with Tween-80
[16] = dose: 1.56 mg/kg/injection, schedule: Q01DX009 (ip), vehicle: saline
[17] = dose: 6.25 mg/kg/injection, schedule: Q01DX009 (ip), vehicle: saline

Measured: T/C

CC(=O)C1CCC=CC1Sc1ccccc1 (stereo not given)
inactive: [1] 103 % of control | dose: 100.0 mg/kg/injection, schedule: Q01DX001 (ip), vehicle: saline 93 % of control | [2] 96 % of control | dose: 200.0 mg/kg/injection, schedule: Q01DX001 (ip), vehicle: saline 101 % of control | [3] 121 % of control | dose: 400.0 mg/kg/injection, schedule: Q01DX001 (ip), vehicle: saline 98 % of control

C=C(C)C1(C)CC1c1ccncc1 (stereo not given)
inactive: [4] 102 % of control | [5] 103 % of control | [6] 94 % of control

CCC(c1ccc(OC)cc1)C(NCC(=O)N/N=C1\C[C@@H]2[C@H](CC[C@]3(C)[C@@H](O)CC[C@@H]23)c2ccc(O)cc21)c1ccc(OC)cc1 (stereo not given in full)
inactive: [7] 100 % of control | [8] 99 % of control | [9] 99 % of control

CCC1(CC(=O)O)OCCc2c1[nH]c1c(C)c(F)ccc21 (stereo not given)
inactive: [1] 95 % of control | [2] 96 % of control | [3] 104 % of control

Cc1c2cnccc2c(C)c2c1c1c(C)c3cnccc3c(C)c1n2C
inactive: dose: 6.25 mg/kg/injection, schedule: Q04DX002 (ip), vehicle: distilled water + Tween-80 94 % of control | dose: 12.5 mg/kg/injection, schedule: Q04DX002 (ip), vehicle: distilled water + Tween-80 97 % of control | dose: 25.0 mg/kg/injection, schedule: Q04DX002 (ip), vehicle: distilled water + Tween-80 102 % of control | dose: 50.0 mg/kg/injection, schedule: Q04DX002 (ip), vehicle: distilled water + Tween-80 108 % of control | dose: 100.0 mg/kg/injection, schedule: Q04DX002 (ip), vehicle: distilled water + Tween-80 94 % of control

CC1OC(=S)N(c2cccc3ccccc23)C1=O (stereo not given)
inactive: [7] 93 % of control | [8] 90 % of control | [9] 94 % of control

CC[C@H]1C[C@H]2CN(CCc3c([nH]c4ccccc34)[C@@](C(=O)OC)(c3cc4c(cc3OC)N(C=O)[C@H]3[C@@](O)(C(=O)OC)[C@H](OC(C)=O)[C@]5(CC)C=CCN6CC[C@]43[C@@H]65)C2)C1
inactive: dose: 4.0 mg/kg/injection, schedule: Q01DX001 (ip), vehicle: water 90 % of control
active: dose: 0.5 mg/kg/injection, schedule: Q01DX001 (ip), vehicle: water 155 % of control | dose: 1.0 mg/kg/injection, schedule: Q01DX001 (ip), vehicle: water 156 % of control and 174 % of control | dose: 2.0 mg/kg/injection, schedule: Q01DX001 (ip), vehicle: water 180 % of control

Nc1ccc2c(c1)C(=O)N(OS(=O)(=O)c1ccccc1)C2=O
inactive: [10] 106 % of control | [11] 107 % of control | dose: 240.0 mg/kg/injection, schedule: Q01DX005 (ip), vehicle: saline with Tween-80 88 % of control

COc1cc(C2N3CCCN2CC3)cc(OC)c1OC (stereo not given)
inactive: dose: 100.0 mg/kg/injection, schedule: Q01DX009 (ip), vehicle: saline 101 % of control | dose: 200.0 mg/kg/injection, schedule: Q01DX009 (ip), vehicle: saline 102 % of control

CCOC(=O)c1sc(N)c(C(=O)OCC)c1C
inactive: [12] 86 % of control

COc1ccc(C2c3cc4c(cc3OC(C)(OC)C2C)OCO4)c(OC)c1OC (stereo not given)
inactive: [7] 94 % of control | [8] 94 % of control

O=C(CN1CCCCC1)Nc1nc(-c2ccc(Cl)cc2)cs1
inactive: dose: 6.25 mg/kg/injection, schedule: Q01DX005 (ip), vehicle: saline with Tween-80 100 % of control | dose: 12.5 mg/kg/injection, schedule: Q01DX005 (ip), vehicle: saline with Tween-80 94 % of control | [4] 89 % of control

O=C1Cc2nc3ccccc3nc2CC(=O)c2ccccc21
inactive: dose: 50.0 mg/kg/injection, schedule: Q04DX002 (ip), vehicle: saline with Tween-80 90 % of control | [13] 87 % of control | [14] 90 % of control

CC(=O)NC(C(=O)O)C(C)(C)S (stereo not given)
inactive: dose: 50.0 mg/kg/injection, schedule: Q01DX005 (ip), vehicle: Klucel (hydroxypropylcellulose) (HPC) 100 % of control | dose: 100.0 mg/kg/injection, schedule: Q01DX005 (ip), vehicle: Klucel (hydroxypropylcellulose) (HPC) 100 % of control | dose: 200.0 mg/kg/injection, schedule: Q01DX005 (ip), vehicle: Klucel (hydroxypropylcellulose) (HPC) 95 % of control

CCCCN(CCCC)CC(O)c1ccc(Br)c2ccccc12 (stereo not given)
inactive: [5] 105 % of control | [6] 102 % of control | [15] 104 % of control

CC(=O)C[n+]1cccc(S)c1-c1ccccc1
inactive: [5] 97 % of control | [6] 105 % of control | [15] 97 % of control

COc1cc(C(c2cc3c(cc2OC(C)=O)OCO3)C(C(C)=O)C(C)=O)cc(OC)c1OC(C)=O (stereo not given)
inactive: [10] 90 % of control | [11] 96 % of control

CCCCCCCCCCCCCC[N+]1(CC)CCCCC1
inactive: dose: 0.19 mg/kg/injection, schedule: Q01DX009 (ip), vehicle: saline 113 % of control and 115 % of control | dose: 0.39 mg/kg/injection, schedule: Q01DX009 (ip), vehicle: saline 111 % of control and 113 % of control and 118 % of control | dose: 0.78 mg/kg/injection, schedule: Q01DX009 (ip), vehicle: saline 120 % of control and 94 % of control | [16] 109 % of control | dose: 1.56 mg/kg/injection, schedule: Q04DX003 (ip), vehicle: saline 113 % of control

CCc1cc(-c2cc(CC)on2)no1
inactive: dose: 60.0 mg/kg/injection, schedule: Q01DX005 (ip), vehicle: saline 103 % of control | dose: 120.0 mg/kg/injection, schedule: Q01DX005 (ip), vehicle: saline 100 % of control | dose: 240.0 mg/kg/injection, schedule: Q01DX005 (ip), vehicle: saline 91 % of control

CCOC(=O)N1CCc2cc(OC)c(O)cc2C1CC1=CC(=O)C(OC)=CC1=O (stereo not given)
inactive: [13] 102 % of control | [14] 100 % of control | dose: 400.0 mg/kg/injection, schedule: Q04DX002 (ip), vehicle: saline with Tween-80 97 % of control

O=[N+]([O-])c1ccc(/C=C/[n+]2ccc3ccccc3c2)o1
inactive: [16] 107 % of control | dose: 3.12 mg/kg/injection, schedule: Q01DX009 (ip), vehicle: saline 103 % of control | [17] 108 % of control and 91 % of control

CN(C)c1ccc(/C=C2\C=Cc3ccccc32)cc1Cl
inactive: [17] 101 % of control | dose: 12.5 mg/kg/injection, schedule: Q01DX009 (ip), vehicle: saline 87 % of control | dose: 25.0 mg/kg/injection, schedule: Q01DX009 (ip), vehicle: saline 94 % of control | dose: 50.0 mg/kg/injection, schedule: Q01DX009 (ip), vehicle: saline 94 % of control

CCOC(=O)C(Cc1ccc(N(CCCl)CCCl)cc1)NC(=O)C(CCC(=O)O)NC(=O)C(CO)NC(=O)C(CCC(=O)O)NC(=O)C(N)CO (stereo not given) (H-SESE[ξPhe(4-N(CH2CH2Cl)2)]-OEt; configuration not given here)
inactive: dose: 5.0 mg/kg/injection, schedule: Q04DX003 (ip), vehicle: water 95 % of control | dose: 10.0 mg/kg/injection, schedule: Q04DX003 (ip), vehicle: water 106 % of control | dose: 20.0 mg/kg/injection, schedule: Q04DX003 (ip), vehicle: water 94 % of control | dose: 40.0 mg/kg/injection, schedule: Q04DX003 (ip), vehicle: water 105 % of control and 119 % of control

CCOC(=O)C1=C(C)N(C)C(C)=C(C(=O)OCC)C1c1ccc(Cl)cc1
inactive: dose: 25.0 mg/kg/injection, schedule: Q01DX009 (ip), vehicle: distilled water + Tween-80 99 % of control | dose: 50.0 mg/kg/injection, schedule: Q01DX009 (ip), vehicle: distilled water + Tween-80 97 % of control | dose: 100.0 mg/kg/injection, schedule: Q01DX009 (ip), vehicle: distilled water + Tween-80 89 % of control | dose: 400.0 mg/kg/injection, schedule: Q01DX009 (ip), vehicle: distilled water + Tween-80 98 % of control

O=C1NC(O)c2cc(F)ccc2O1 (stereo not given)
inactive: [4] 104 % of control | [5] 105 % of control and 110 % of control | [6] 111 % of control and 115 % of control | [15] 111 % of control

NCCCCC(NC(=O)c1ccccc1)C(=O)O (stereo not given)
inactive: dose: 50.0 mg/kg/injection, schedule: Q01DX009 (ip), vehicle: saline with Tween-80 98 % of control | [12] 100 % of control | dose: 200.0 mg/kg/injection, schedule: Q01DX009 (ip), vehicle: saline with Tween-80 104 % of control
